Measured values: patent US6403594B1, “Benzopyran derivatives” (Recordati, S.A. Chemical and Pharmaceutical Company, priority 1999, dated 2002)
Like-named read-outs stand apart in the source and are kept apart here.

Experiments:
diastolic blood pressure [1] = test: Lowering of diastolic blood pressure in anaesthetised dogs after i.v. administration; format: in vivo, dog
Description: (§1) The experiments were performed according to the method of Imagawa J. et al., J. Pharmacol. Methods 22: 103-111, 1989, with substantial modifications, as follows: adult male beagle dogs, weighing 8-10 kg, were anaesthetised with pentobarbital sodium (30 mg/kg i.v. and 2 mg/kg/h i.v.), intubated and spontaneously ventilated with room air. In order to monitor systemic blood pressure (BP), a polyethylene (PE) catheter was introduced into the aortic arch through the left femoral artery. A collateral of the left femoral vein was cannulated for infusion of anaesthetic, and the right femoral vein was cannulated for administration of compounds. For intra-arterial (i.a.) injection of noradrenaline (NA), a PE catheter was introduced into the lower portion of the abdominal aorta via the right external iliac artery. Through such procedure, NA was selectively distributed to the lower urinary tract. A paramedian vertical suprapubic incision extending from the base of the pelvis to the mid-abdominal region was made and the bladder and prostate were exposed. The bladder was manually emptied with a syringe. Prostatic urethral pressure was monitored with a Mikro-tip catheter (5F) introduced into the bladder via the external urethral meatus, and withdrawn until the pressure transducer was positioned in the prostatic region of the urethra. A ligature was secured between the neck of the bladder and urethra to isolate the response of the latter and to avoid any interaction with the bladder. Another ligature was put around the Mikro-tip catheter at the external meatus, to secure the catheter itself. After a stabilising period following the surgical procedure (30 minutes), in which arterial and prostatic urethral pressure were continuously monitored as basal values, i.a. administration of NA was made at intervals of 20 minutes. The doses of NA chosen were such to produce an increase of at least 100% in urethral pressure. The test compounds were administered i.v. in a cumulative manner with intervals of 15-20 minutes between administrations. I.a. injections of NA were repeated 5 minutes after every dosing of test compound with intervals of about 10 minutes between stimulations. In order to compare the effects of the administered compound, dose/response curves (log dose transformation) were constructed by computing, at the peak effect, the percent decrease in diastolic blood pressure and the percent inhibition of the increase in urethral pressure induced by NA.

[2] = target: T1, α1b-adrenoceptor (recombinant) (Homo sapiens, UniProt P35368); test: Radioligand binding, cloned α1b-adrenoceptor ([3H]prazosin); conditions: read-out: Affinity for recombinant α1b-adrenoceptor, cloned receptors (Ki)
T1 construct: expressed in transfected cells
T1 sequence (P35368 1-520): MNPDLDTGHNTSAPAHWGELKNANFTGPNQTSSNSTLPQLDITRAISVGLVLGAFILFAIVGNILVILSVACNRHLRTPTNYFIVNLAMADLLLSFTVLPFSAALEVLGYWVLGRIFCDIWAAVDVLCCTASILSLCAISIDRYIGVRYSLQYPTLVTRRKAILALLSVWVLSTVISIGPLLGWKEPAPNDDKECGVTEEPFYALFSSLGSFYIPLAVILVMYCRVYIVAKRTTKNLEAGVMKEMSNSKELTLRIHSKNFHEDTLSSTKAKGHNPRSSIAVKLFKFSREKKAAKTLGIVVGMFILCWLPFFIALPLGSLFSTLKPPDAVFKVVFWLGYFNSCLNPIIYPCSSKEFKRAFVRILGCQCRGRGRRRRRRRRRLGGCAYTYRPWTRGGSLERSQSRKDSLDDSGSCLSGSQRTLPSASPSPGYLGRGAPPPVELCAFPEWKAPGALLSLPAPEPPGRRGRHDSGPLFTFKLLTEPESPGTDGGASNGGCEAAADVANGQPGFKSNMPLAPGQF
Description: (§2) Determination of affinity for cloned subtypes of α1-adrenoceptor subtypes was performed in membranes from cells transfected by electroporation with DNA expressing the genes encoding each α1-adrenoceptor subtype.
(§3) Non-specific binding was determined in the presence of 10 μM phentolamine.
(§4) Incubation was stopped by addition of ice-cold Tris buffer and rapid filtration through 0.2% polyethyleneimine-pretreated Schleicher & Schuell GF52 filters.
(§5) Data were expressed as mean Ki.

[3] = target: T2, α1a-adrenoceptor (recombinant) (Homo sapiens, UniProt P35348); test: Radioligand binding, cloned α1a-adrenoceptor ([3H]prazosin); conditions: read-out: Affinity for recombinant α1a-adrenoceptor, cloned receptors (Ki)
T2 construct: expressed in transfected cells
T2 sequence (P35348 1-466): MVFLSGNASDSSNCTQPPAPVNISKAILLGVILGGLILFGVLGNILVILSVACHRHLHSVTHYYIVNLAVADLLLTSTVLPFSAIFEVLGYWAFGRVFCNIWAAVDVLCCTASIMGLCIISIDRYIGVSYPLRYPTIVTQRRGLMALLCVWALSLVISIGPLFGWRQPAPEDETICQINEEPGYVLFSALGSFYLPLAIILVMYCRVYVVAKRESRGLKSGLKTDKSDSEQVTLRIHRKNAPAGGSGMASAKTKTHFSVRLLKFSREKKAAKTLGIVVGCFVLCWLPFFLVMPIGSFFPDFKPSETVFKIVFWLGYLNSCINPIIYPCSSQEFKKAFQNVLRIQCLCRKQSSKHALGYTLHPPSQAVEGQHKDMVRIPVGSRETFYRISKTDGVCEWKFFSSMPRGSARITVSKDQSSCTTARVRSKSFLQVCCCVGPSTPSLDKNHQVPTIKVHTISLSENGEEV
Description: as §2, §3, §4, §5

[4] = target: T3, α1d-adrenoceptor (recombinant) (Homo sapiens, UniProt P25100); test: Radioligand binding, cloned α1d-adrenoceptor ([3H]prazosin); conditions: read-out: Affinity for recombinant α1d-adrenoceptor, cloned receptors (Ki)
T3 sequence (P25100 1-572): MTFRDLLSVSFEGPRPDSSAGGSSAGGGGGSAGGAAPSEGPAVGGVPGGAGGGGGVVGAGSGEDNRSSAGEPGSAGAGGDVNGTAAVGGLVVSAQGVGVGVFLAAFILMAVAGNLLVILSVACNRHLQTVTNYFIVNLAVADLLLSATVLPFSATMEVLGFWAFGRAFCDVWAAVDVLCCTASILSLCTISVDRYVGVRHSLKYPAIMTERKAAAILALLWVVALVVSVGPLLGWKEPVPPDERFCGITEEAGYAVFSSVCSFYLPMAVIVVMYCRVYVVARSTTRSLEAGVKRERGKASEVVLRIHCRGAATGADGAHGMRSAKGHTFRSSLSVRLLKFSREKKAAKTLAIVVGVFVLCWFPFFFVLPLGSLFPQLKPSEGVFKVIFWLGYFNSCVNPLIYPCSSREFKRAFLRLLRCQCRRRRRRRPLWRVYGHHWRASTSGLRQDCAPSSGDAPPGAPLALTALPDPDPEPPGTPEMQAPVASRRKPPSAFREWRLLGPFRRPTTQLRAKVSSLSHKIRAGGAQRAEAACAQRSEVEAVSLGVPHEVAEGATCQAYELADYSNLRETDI
Description: as §2, §3, §4, §5

[5] = tested on: prostatic urethral pressure increase induced by noradrenaline; test: Inhibition of urethral contractions induced by noradrenaline in anaesthetised dogs after i.v. administration; format: in vivo, dog; conditions: for UC ID50: active dose inhibiting by 50% the urethral contractions induced by noradrenaline: i.v. administration; for DBP/UC ratio between the active doses: i.v., DBP ED25 / UC ID50
Description: as §1

[6] = target: T4, 5HT1A-serotoninergic receptor (Homo sapiens, UniProt P08908); test: Radioligand binding, cloned 5-HT1A-serotoninergic receptor in HeLa membranes ([3H]8-OH-DPAT); set-up: expressed in transfected cells; host or cells: HeLa; conditions: cloned human 5-HT1A receptor in HeLa membranes, mean Ki, read-out: Affinity for 5-HT1A receptor, cloned receptors (Ki)
T4 sequence (P08908 1-422): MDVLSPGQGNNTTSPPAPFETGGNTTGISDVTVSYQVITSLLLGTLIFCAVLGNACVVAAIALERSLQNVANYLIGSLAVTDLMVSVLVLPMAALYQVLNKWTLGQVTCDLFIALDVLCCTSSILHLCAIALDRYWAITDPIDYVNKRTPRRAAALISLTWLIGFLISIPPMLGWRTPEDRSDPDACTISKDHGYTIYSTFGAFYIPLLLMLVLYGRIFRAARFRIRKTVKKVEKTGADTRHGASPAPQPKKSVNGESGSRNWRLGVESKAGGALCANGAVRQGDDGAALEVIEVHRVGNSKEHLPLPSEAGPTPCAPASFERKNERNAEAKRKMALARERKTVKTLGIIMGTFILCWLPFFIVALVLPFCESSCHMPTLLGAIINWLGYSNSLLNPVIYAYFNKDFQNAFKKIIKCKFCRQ
Description: HeLa cells were grown as monolayers in Dulbecco's Modified Eagle medium (DMEM) supplemented with 10% foetal calf serum and gentamicin (100 μg/mL), 5% CO2, at 37° C. The cells were detached from the growth flask at 95% confluence by a cell scraper and were lysed in ice-cold Tris-5-mM and EDTA-5-mM buffer (pH 7.4). The homogenates were centrifuged at 40000×g×20 minutes and the membranes were resuspended in a small volume of ice-cold buffer containing Tris 5 mM and EDTA 5 mM (pH 7.4), and immediately frozen and stored at −70° C. until use.
Non-specific binding was determined in the presence of 10 μM 5-HT. The incubation was stopped by addition of ice-cold Tris buffer and rapid filtration through 0.2% polyethyleneimine-pretreated Schleicher & Schuell filters.
as §5

diastolic blood pressure [7] = conditions: anaesthetised dogs, i.v.; data from Leonardi et al. 1997; cited from earlier work
[8] = tested on: prostatic urethral pressure increase induced by noradrenaline; conditions: anaesthetised dogs, i.v.; data from Leonardi et al. 1997; cited from earlier work
[9] = target: T4, 5HT1A-serotoninergic receptor; conditions: background statement; cited from earlier work
α1-adrenergic receptor = conditions: background statement; cited from earlier work

Row | SMILES | DBP ED25: active dose lowering diastolic blood pressure by 25% (diastolic blood pressure [1]) [µg/kg] | Ki [2] [nM] | Ki [3] [nM] | Ki [4] [nM] | UC ID50: active dose inhibiting by 50% the urethral contractions induced by noradrenaline [5] [µg/kg] | DBP/UC ratio between the active doses [5] | Ki [6] [nM] | DBP ED25: active dose lowering diastolic blood pressure by 25% (diastolic blood pressure [7]) [µg/kg] | UC ID50: active dose inhibiting by 50% the urethral contractions induced by noradrenaline [8] [µg/kg] | Affinity for the 5HT1A-serotoninergic receptor [9] | Affinity for the α1-adrenergic receptor (α1-adrenergic receptor)
1 | Cc1c(-c2ccccc2)oc2c(C(=O)NCCCN3CCN(c4cc(Cl)ccc4OCC(F)(F)F)CC3)cccc2c1=O [Example 22, 8-<3-{4-[5-Chloro-2-(2,2,2-trifluoroethoxy)phenyl]-1-piperazinyl}-propylcarbamoyl>-3-methyl-4-oxo-2-phenyl-4H-1-benzopyran] | 1266 | 1.9 | 0.25 | 3.07 | 19.5 | 64.92 | – | – | – | – | –
2 | COc1ccc(C#N)cc1N1CCN(CCCNC(=O)c2cccc3c(=O)c(C)c(-c4ccccc4)oc23)CC1 [Example 18, 8-{3-[4-(5-Cyano-2-methoxyphenyl)-1-piperazinyl]propylcarbamoyl}-3-methyl-4-oxo-2-phenyl-4H-1-benzopyran] | 1297.6 | 100 | 4.18 | 45.4 | 34.1 | 38.05 | 677 | – | – | – | –
3 | Cc1c(-c2ccccc2)oc2c(C(=O)NCCCN3CCN(c4ccccc4OCC(F)(F)F)CC3)cccc2c1=O [Example 15, 8-<3-{4-[2-(2,2,2-Trifluoroethoxy)phenyl]-1-piperazinyl}propylcarbamoyl>-3-methyl-4-oxo-2-phenyl-4H-1-benzopyran] | 3001 | 6 | 0.07 | 3.38 | 4.9 | – | 0.71 | – | – | – | –
4 | COc1ccccc1N1CCN(CCCNC(=O)c2cccc3c(=O)c(C)c(-c4ccccc4)oc23)CC1 [Compound A] | – | – | – | – | – | – | – | 243 | 2.4 | – | –
5 | Cc1c(-c2ccccc2)oc2c(C(=O)OCCN3CCCCC3)cccc2c1=O [Flavoxate, 3-methyl-4-oxo-2-phenyl-8-(2,N-piperidinylethoxycarbonyl)-4H-1-benzopyran] | – | – | – | – | – | – | – | – | – | practically devoid of affinity | practically devoid of affinity
6 | CCOc1ccccc1OCCN[C@H](C)Cc1ccc(OC)c(S(N)(=O)=O)c1 [tamsulosin] | – | – | – | – | – | – | – | – | – | comparable affinity | –
